Reference: patent US4798834A, “Optionally substituted (3β-9,10-didehydro-2,3-dihydro ergoline as serotonergic function enhancement” (Eli Lilly and Company, priority 1987, dated 1989)
Entries after “also recorded” stand apart in the source; their conditions may differ.

Legend:
5-HT2 receptor = target: T1, 5-HT2 receptor (Rattus norvegicus, UniProt P14842); assay: binding to 5-HT2 sites ([3H]spiperone displacement, rat brain frontal cortex); parameters: species or system rat (Wistar)
T1 construct: Rat brain frontal cortex from male Wistar rats; from tissue; host or cells: rat brain frontal cortex (male Wistar), membrane pellet
T1 sequence (P14842 whole entry): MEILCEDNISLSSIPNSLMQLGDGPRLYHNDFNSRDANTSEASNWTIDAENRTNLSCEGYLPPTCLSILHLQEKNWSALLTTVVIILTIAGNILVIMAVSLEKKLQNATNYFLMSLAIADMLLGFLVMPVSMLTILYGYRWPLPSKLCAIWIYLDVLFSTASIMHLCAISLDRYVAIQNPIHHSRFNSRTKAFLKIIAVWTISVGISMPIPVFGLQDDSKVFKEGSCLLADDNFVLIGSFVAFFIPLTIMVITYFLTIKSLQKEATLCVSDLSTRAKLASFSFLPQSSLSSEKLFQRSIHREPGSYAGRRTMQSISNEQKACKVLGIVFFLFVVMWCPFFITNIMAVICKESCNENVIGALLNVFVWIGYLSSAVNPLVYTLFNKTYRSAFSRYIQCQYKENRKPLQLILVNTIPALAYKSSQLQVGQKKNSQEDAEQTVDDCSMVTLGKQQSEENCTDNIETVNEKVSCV
Protocol: The pellet from the frontal cortex homogenates was suspended in 0.05 molar (M) Tris buffer containing 10 micromolar (μM) pargyline and 4 millimolar (mM) Ca^++ to give a final protein concentration of 250-350 microgram (μg) per sample. […] All radioactive ligands were obtained from New England Nuclear, Boston, Mass., USA. Specific binding was determined as the difference between total binding and nonspecific binding. Eleven concentrations of each of the compounds tested were used between 0.1 and 10,000 nM. All samples were run in duplicate.

[1] = tested on: serotonin and 5-HIAA in rat brain; assay: animal or person; assay type: in vivo, rat (Wistar); details: sc, subcutaneous, 1 h after injection, p<0.05 vs control, read-out: Minimum effective dose suppressing 5-HIAA
Protocol: Male Wistar rate (HSD/[WI]BR) weighing about 150 g were kept in a temperature-controlled (24° C.) and light-controlled room (lights on from 7:00 A.M. to 7:00 P.M.) with food and water freely available. The compounds to be tested were dissolved in dilute hydrochloric acid and injected subcutaneously. Five rats per group were used in each experiment. The rats were decapitated one hour after injection and the brains were excised quickly, frozen on dry ice and stored at -15° C. before analysis. […] Neurosci. Abstr. […] Serum corticosterone levels were determined spectrofluorometrically by the method of Solem et al., Scand. J. Clin. Lab. Invest. […] 80, 1.

serum corticosterone = assay: corticosterone concentrations in the serum of rats; assay type: in vivo, rat (Wistar); details: sc; subcutaneous; rat, 1 h after injection; p<0.05 vs control; read-out: Minimum effective dose increasing serum corticosterone
Protocol: (§1) Male Wistar rate (HSD/[WI]BR) weighing about 150 g were kept in a temperature-controlled (24° C.) and light-controlled room (lights on from 7:00 A.M. to 7:00 P.M.) with food and water freely available. The compounds to be tested were dissolved in dilute hydrochloric acid and injected subcutaneously. Five rats per group were used in each experiment. The rats were decapitated one hour after injection and the brains were excised quickly, frozen on dry ice and stored at -15° C. before analysis. […] See Fuller et al., Biochem. Pharmacol. 1977, 26, 2087 and Perry et al., Soc. Neurosci. Abstr. 1979, 5, 348. Serum corticosterone levels were determined spectrofluorometrically by the method of Solem et al., Scand. J. Clin. Lab. Invest. 1965, 17, suppl. 80, 1.
The minimum effective doses of these same compounds which produced a statistically significant decrease in 5-HIAA concentration and a statistically significant increase in serum corticosterone concentration are shown in Table II. The minimum effective dose is the lowest dose producing significant differences from a control group (p<0.05).

5-HT1 receptor = assay: binding to 5-HT1 sites ([3H]serotonin displacement, rat brain frontal cortex); parameters: species or system rat (Wistar); details: for IC50: 2 nM [3H]serotonin, rat frontal cortex; for Selectivity Ratio: IC50 5HT2 / IC50 5HT1, values greater than 1 indicate selectivity for the 5HT1 receptor
Protocol: All radioactive ligands were obtained from New England Nuclear, Boston, Mass., USA. Specific binding was determined as the difference between total binding and nonspecific binding. Eleven concentrations of each of the compounds tested were used between 0.1 and 10,000 nM. All samples were run in duplicate.

[2] = tested on: 5-hydroxytryptophan in rat hypothalamus; assay: accumulation of 5-hydroxytryptophan in rat hypothalamus (NSD-1015 treated rats); assay type: in vivo, rat (Wistar); details: for 5-Hydroxytryptophan Concentration in Hypothalamus: NSD-1015 100 mg/kg i.p., mean ± SE, n=5, control 1.92 ± 0.07, significant decrease p<0.01
Protocol: as §1
The protocol previously described for neurochemical determinations was repeated with the following modification. To each of the five rats in the treatment group was administered the amino acid decarboxylase inhibitor m-hydroxybenzylhydrazine (also known as NSD-1015). See Euvard et al., Eur. J. Pharmacol. 1980, 63, 65 and Hamon et al., Arch. Pharmacol. 1976, 294, 99. The NSD-1015 was administered at a dose of 100 mg/kg (intraperitoneal) 30 minutes before decapitation and 30 minutes after the dose of the test compound of Example 1 was given.

Row | SMILES | IC50 (5-HT2 receptor) | minimal effective dose [1] | minimal effective dose (serum corticosterone) | IC50 (5-HT1 receptor) | Selectivity Ratio (5-HT1 receptor) | 5-Hydroxytryptophan Concentration in Hypothalamus ([2]; 0.01 mg/kg subcutaneous) | 5-Hydroxytryptophan Concentration in Hypothalamus ([2]; 0.03 mg/kg subcutaneous) | 5-Hydroxytryptophan Concentration in Hypothalamus ([2]; 0.1 mg/kg subcutaneous) | 5-Hydroxytryptophan Concentration in Hypothalamus ([2]; 0.3 mg/kg subcutaneous) | 5-hydroxytryptophan accumulation in the hypothalamus (in words) ([2]; NSD-1015 treated rats, 0.01-0.3 mg/kg subcutaneous) | dose of maximal reduction of serotonin turnover ([2]; NSD-1015 treated rats, subcutaneous)
1 | CSC[C@@H]1C=C2c3cccc4c3[C@@H](CN4)C[C@H]2N(C)C1 [Example 5, (3β,5β,8β)-9,10-Didehydro-2,3-dihydro-6-methyl-8-(methylthiomethyl) ergoline] | 1330 nM | 0.1 mg/kg | 1 mg/kg | 20 nM | 66 | – | – | – | – | – | –
2 | CCCN1C[C@H](C)C=C2c3cccc4c3[C@@H](CN4)C[C@H]21 [Example 10, (3β,5β,8β)-9,10-Didehydro-2,3-dihydro-8-methyl-6-propylergoline] | > 1000 nM | – | – | 240 nM | – | – | – | – | – | – | –
3 | C[C@@H]1C=C2c3cccc4c3[C@@H](CN4)C[C@H]2N(C)C1 [Example 1, (3β)-2,3-Dihydrolysergine] | 1660 nM | 0.03 mg/kg | 0.1 mg/kg | 17 nM | – | 1.64 ± 0.07 nanomoles per gram | 1.19 ± 0.05 nanomoles per gram | 0.73 ± 0.02 nanomoles per gram | 0.71 ± 0.02 nanomoles per gram | dose related decrease in 5-hydroxytryptophan accumulation; also recorded: Significant effects were detected at all of the doses used | 0.1 mg/kg
4 | CN1C[C@H](CSc2ccccc2)C=C2c3cccc4c3[C@@H](CN4)C[C@H]21 [Example 7, (3β,5β,8β)-9,10-Didehydro-2,3-dihydro-6-methyl-8-(phenylthiomethyl) ergoline] | 210 nM | – | – | 8 nM | 26 | – | – | – | – | – | –
5 | CN1C[C@H](CO)C=C2c3cccc4c3[C@@H](CN4)C[C@H]21 [Example 3, (3β)-2,3-Dihydrolysergol] | 2650 nM | 1 mg/kg | 0.1 mg/kg | 26 nM | – | – | – | – | – | – | –
6 | CN1C[C@H](CSc2ccccn2)C=C2c3cccc4c3[C@@H](CN4)C[C@H]21 [Example 8, (3β,5β,8β)-9,10-Didehydro-2,3-dihydro-6-methyl-8-(2-pyridylthiomethyl)ergoline] | 110 nM | – | – | 3 nM | 28 | – | – | – | – | – | –
7 | CN1C[C@H](CC#N)C=C2c3cccc4c3[C@@H](CN4)C[C@H]21 [Example 6, (3β,5β,8β)-9,10-Didehydro-2,3-dihydro-6-methylergoline-8-acetonitrile] | 2120 nM | 0.1 mg/kg | 0.1 mg/kg | 20 nM | – | – | – | – | – | – | –
8 | NCCc1c[nH]c2ccc(O)cc12 [serotonin, 5-hydroxytryptamine, reference compound] | – | – | – | 4 nM | – | – | – | – | – | – | –
9 | C=C1C=C2c3cccc4c3[C@@H](CN4)C[C@H]2N(C)C1 [Example 4, (3β)-2,3-Dihydrolysergene] | 3820 nM | – | – | 80 nM | 48 | – | – | – | – | – | –
10 | C[C@H]1C=C2c3cccc4c3[C@@H](CN4)C[C@H]2N(C)C1 [Example 2, (3β)-2,3-Dihydroisolysergine] | > 1000 nM | 0.001 mg/kg | 0.003 mg/kg | 20 nM | at least 100 | – | – | – | – | – | –
11 | COC(=O)[C@@H]1C=C2c3cccc4c3[C@@H](CN4)C[C@H]2N(C)C1 [Example 9, (3β)-2,3-Dihydro-methyllysergate] | 1620 nM | – | – | 40 nM | 40 | – | – | – | – | – | –
